Measured values from US20250018048A1, “FLUCONAZOLE-COX INHIBITOR HYBRIDS: A DUAL-ACTING CLASS OF ANTIFUNGAL AZOLES” (Ramot at Tel-Aviv University Ltd., priority 2022, published 2025).
≈ marks a conversion by molar mass, not a printed value.

Key:
Assay type in all cases: cell-based
[1] = system: C. albicans 742 (erg11ΔΔ/erg3ΔΔ mutant C. albicans strain); assay: MIC80 broth double-dilution assay, strain lacking CYP51; settings: YPAD medium, 30° C., 24 h; erg11ΔΔ/erg3ΔΔ mutant lacking CYP51
Method: (§1) The antifungal activities of the 24 azole-COX inhibitor hybrids were evaluated against a panel of 16 representative strains of different species of the genus Candida. Candida species cause both superficial and systemic infections. The panel included strains of C. albicans, C. glabrata, C. parapsilosis, C. tropicalis, C. guilliermondii, C. dubliniensis, and C. auris (Table S2). To evaluate antifungal activity, the minimal inhibitory concentration 80% (MIC80) values were determined, which were defined as the lowest drug concentrations with turbidity (measured at OD600) less than or equal to that of specific 1:5 dilutions of the growth control. As controls, FLC and VOR, were tested.
(§2) The clinically used FLC and VOR act primarily by preventing ergosterol biosynthesis via inhibition of CYP51. Analysis was done to determine whether fungal growth inhibition by the hybrids required the presence of the ERG11 gene that encodes for CYP51. The antifungal activities of hybrids 1 and 5 and of FLC and VOR were determined against an erg11ΔΔ/erg3ΔΔ mutant C. albicans strain and against C. albicans SN152 from which this double knockout strain was derived (Table S2). […] Yeast growth was followed at OD600 over 48 h in 96-well plates containing serial double dilutions of the tested hybrids.
(§3) C. albicans, C. glabrata, C. parapsilosis, C. guilliermondii, C. tropicalis, and C. dubliniensis MICs were determined using CLSI M27-A3 guidelines with minor modifications. Starter cultures were streaked from glycerol stock onto YPAD agar plates and grown for 24 h at 30° C. Colonies were suspended in 1 mL PBS and diluted to 1×10^−3 OD600 and then diluted 1:100 into fresh medium. Hybrids dissolved in DMSO were added to YPAD broth (32 μL stock solution in 1218 μL of YPAD broth), and serial double dilutions of hybrids in YPAD were prepared in flat-bottomed 96-well microplates (Corning) to enable testing of concentrations ranging from 64 μg/mL to 0.003 μg/mL. Control wells with yeast cells but no drug and blank wells containing only YPAD were prepared. An equal volume (100 μL) of yeast suspensions in YPAD broth was added to each well with the exceptions of the blank wells. MIC values (Tables S4-S6) were determined after 24 h at 30° C. by measuring the OD600 using a plate reader (Infinite M200 PRO, Tecan). MIC values were defined as the point at which the OD600 was reduced by >80% compared to the no-drug wells. Each concentration was tested in triplicate, and results were confirmed by two independent sets of experiments. FLC and VOR were used as control drugs.

C. auris ATCC MYA5001 = assay: MIC broth double-dilution assay with MTT (CLSI M27-A3); settings: YPAD medium, 37° C., 24 h, growth score 0 or 1
Method: (§4) Minimal inhibitory concentration broth double-dilution assay: C. auris minimal inhibitory concentrations (MICs) were determined using CLSI M27-A3 guidelines with minor modifications. Starter cultures were streaked from glycerol stock onto YPAD agar plates and grown for 24 h at 37° C. Colonies were suspended in 1 mL PBS and diluted to 1×10^−3 optical density at 600 nm (OD600) and then diluted 1:100 into fresh medium. hybrids dissolved in DMSO were added to YPAD broth (32 μL stock solution in 1218 μL of YPAD broth), and serial double dilutions of hybrids in YPAD were prepared in flat-bottomed 96-well microplates (Corning) to enable testing of concentrations ranging from 64 μg/mL to 0.007 μg/mL. Control wells with yeast cells but no drug and blank wells containing only YPAD were prepared. An equal volume (100 μL) of yeast suspension in YPAD broth was added to each well with the exceptions of the blank wells. After incubation for 24 h at 37° C., MTT (50 μL of a 1 mg/mL solution in ddH2O) was added to each well followed by additional incubation at 37° C. for 2 h. MIC values (Table S3) were defined as the lowest concentration of an antifungal agent that caused a specified reduction in visible growth as per the CLSI M27-A3 protocol. The magnitude of reduction in visible growth was assessed using the following numerical scale: 0, optically clear; 1, slightly hazy; 2, prominent decrease (˜50%) in visible growth; 3, slight reduction in visible growth; and 4, no reduction in visible growth. The MIC was defined based on reduction in growth to 0 or 1. Results were confirmed in two independent experiments, and each concentration was tested in triplicate. FLC and VOR were used as control drugs.

C. auris ATCC MYA5002 = assay: as above; settings: YPAD medium, 37° C., 24 h, growth score 0 or 1
Method: as §4

C. albicans SN152 = assay: MIC80 broth double-dilution assay; settings: YPAD medium, 30° C., 24 h; parent strain of the erg11ΔΔ/erg3ΔΔ mutant
Method: as §1
(§5) MIC80 values were determined using the broth microdilution method over a concentration range of 0.003-64 μg/mL. Orange circles represent C. albicans strains, yellow circles represent C. glabrata strains, and green circles represent C. parapsilosis, C. tropicalis, C. dubliniensis and C. auris. Cells were grown in YPAD medium at 30° C. (For C. auris strains 37° C.) 24 h. Each concentration was tested in triplicate, and results were confirmed in at least two independent experiments.
as §2, §3

C. albicans ATCC 24433 = assay: MIC80 broth double-dilution assay; settings: YPAD medium, 30° C., 24 h
Method: as §1, §5, §3

C. albicans SC5314 = assay: MIC80 broth double-dilution assay; settings: YPAD medium, 30° C., 24 h
Method: as §1, §5, §3

C. albicans P-87 = assay: MIC80 broth double-dilution assay; settings: YPAD medium, 30° C., 24 h
Method: as §1, §5, §3

[2] = system: C. parapsilosis ATCC 22019; assay: MIC80 broth double-dilution assay; settings: YPAD medium, 30° C., 24 h
Method: as §1, §5, §3

C. albicans ATCC 90028 = assay: MIC80 broth double-dilution assay; settings: YPAD medium, 30° C., 24 h
Method: as §1, §5, §3

C. tropicalis 660 = assay: MIC80 broth double-dilution assay; settings: YPAD medium, 30° C., 24 h
Method: as §1, §5, §3

C. dubliniensis T-99 = assay: MIC80 broth double-dilution assay; settings: YPAD medium, 30° C., 24 h
Method: as §1, §5, §3

C. guilliermondii T-47 = assay: MIC80 broth double-dilution assay; settings: YPAD medium, 30° C., 24 h
Method: as §1, §3

[3] = system: erg11ΔΔ/erg3ΔΔ mutant C. albicans; assay: Growth curve analysis of C. albicans lacking CYP51; settings: entire range of concentrations (64 to 1 μg/mL), YPAD, 30° C., 48 h
Method: as §2
Cells of erg11ΔΔ/erg3ΔΔ mutant C. albicans were grown in YPAD media at 30° C. and treated with different concentrations of the tested hybrids. Growth was measured by recording the OD600 values every 40 minutes over a 48-h course on an automated plate reader.
Growth curve analyses: Growth curves were determined using the double-dilution method in 96-well plates. Starter cultures were streaked from glycerol stock onto YPAD agar plates and grown for 24 h at 30° C. Colonies were suspended in 1 mL PBS and diluted to 1×10^−3 OD600 and then diluted 1:100 into fresh medium. Hybrids dissolved in DMSO were added to YPAD broth (32 μL stock solution in 1218 μL of YPAD broth), and serial double dilutions of hybrids in YPAD were prepared in flat-bottomed 96-well microplates (Corning) to enable testing of concentrations ranging from 64 μg/mL to 1 μg/mL. Control wells with yeast cells but no drug (100% growth) and blank wells containing only YPAD (0% growth) were prepared. An equal volume (100 μL) of yeast suspensions in YPAD broth was added to each well with the exceptions of the blank wells. Growth was determined at 30° C. by measuring the OD600 using a plate reader (Infinite M200 PRO, Tecan) every 40 minutes over 48 h. Each concentration was tested in triplicate, and results were confirmed by two independent sets of experiments. FLC and VOR were used as control drugs.

| Compound | MIC80 against C. albicans 742 [1] [mg/L] | MIC against C. auris 5001 (C. auris ATCC MYA5001) [mg/L] | MIC against C. auris 5002 (C. auris ATCC MYA5002) [mg/L] | MIC80 against C. albicans SN152 (C. albicans SN152) [mg/L] | MIC80 against C. albicans 24433 (C. albicans ATCC 24433) [mg/L] | MIC80 against C. albicans SC5314 (C. albicans SC5314) [mg/L] | MIC80 against C. albicans P-87 (C. albicans P-87) [mg/L] | MIC80 against C. parapsilosis 22019 [2] [mg/L] | MIC80 against C. albicans 90028 (C. albicans ATCC 90028) [mg/L] | MIC80 against C. tropicalis 660 (C. tropicalis 660) [mg/L] | MIC80 against C. dubliniensis T-99 (C. dubliniensis T-99) [mg/L] | MIC80 against C. guilliermondii T-47 (C. guilliermondii T-47) [mg/L] | Effect on growth (OD600) of the double knockout mutant [3] |
| --- | --- | --- | --- | --- | --- | --- | --- | --- | --- | --- | --- | --- | --- |
| COc1ccc2cc([C@@H](C)C(=O)NC[C@](O)(Cn3cncn3)c3ccc(F)cc3F)ccc2c1 [Hybrid 10] | >64 | 0.5 (≈ 1.07 µM) | 16 (≈ 34.3 µM) | 0.012 (≈ 0.0257 µM) | 0.25 (≈ 0.536 µM) | 0.12 (≈ 0.257 µM) | 0.25 (≈ 0.536 µM) | 1 (≈ 2.14 µM) | 0.12 (≈ 0.257 µM) | 4 (≈ 8.57 µM) | 2 (≈ 4.29 µM) | 1 (≈ 2.14 µM) | – |
| O=C(NC[C@](O)(Cn1cncn1)c1ccc(F)cc1F)c1cccnc1Nc1cccc(C(F)(F)F)c1 [Hybrid 17] | 16 (≈ 30.9 µM) | 0.25 (≈ 0.482 µM) | 4 (≈ 7.72 µM) | 0.06 (≈ 0.116 µM) | 0.12 (≈ 0.231 µM) | 0.12 (≈ 0.231 µM) | 0.25 (≈ 0.482 µM) | 0.5 (≈ 0.964 µM) | 0.12 (≈ 0.231 µM) | 2 (≈ 3.86 µM) | 2 (≈ 3.86 µM) | 2 (≈ 3.86 µM) | – |
| O=C(NC[C@](O)(Cn1cncn1)c1ccc(F)cc1F)c1cc(-c2ccc(F)cc2F)ccc1O [Hybrid 19] | 64 (≈ 132 µM) | 0.12 (≈ 0.247 µM) | 2 (≈ 4.11 µM) | 0.03 (≈ 0.0617 µM) | 0.06 (≈ 0.123 µM) | 0.06 (≈ 0.123 µM) | 0.03 (≈ 0.0617 µM) | 0.06 (≈ 0.123 µM) | 0.12 (≈ 0.247 µM) | 0.12 (≈ 0.247 µM) | 2 (≈ 4.11 µM) | 2 (≈ 4.11 µM) | – |
| O=C(NC[C@](O)(Cn1cncn1)c1ccc(F)cc1F)c1ccccc1O [Hybrid 21] | >64 | 0.25 (≈ 0.668 µM) | 8 (≈ 21.4 µM) | 0.12 (≈ 0.321 µM) | 0.12 (≈ 0.321 µM) | 0.12 (≈ 0.321 µM) | 0.12 (≈ 0.321 µM) | 1 (≈ 2.67 µM) | 0.25 (≈ 0.668 µM) | 0.12 (≈ 0.321 µM) | 2 (≈ 5.34 µM) | 1 (≈ 2.67 µM) | – |
| O=C(NC[C@@](O)(Cn1cncn1)c1ccc(F)cc1F)c1ccccc1O [Hybrid 22] | >64 | – | – | 8 (≈ 21.4 µM) | 16 (≈ 42.7 µM) | 8 (≈ 21.4 µM) | 16 (≈ 42.7 µM) | 8 (≈ 21.4 µM) | 8 (≈ 21.4 µM) | 32 (≈ 85.5 µM) | >64 | 16 (≈ 42.7 µM) | – |
| O=C(Cc1ccccc1Nc1c(Cl)cccc1Cl)NC[C@](O)(Cn1cncn1)c1ccc(F)cc1F [Hybrid 23] | >64 | 2 (≈ 3.76 µM) | 64 (≈ 120 µM) | 1 (≈ 1.88 µM) | 1 (≈ 1.88 µM) | 1 (≈ 1.88 µM) | 1 (≈ 1.88 µM) | 0.5 (≈ 0.939 µM) | 1 (≈ 1.88 µM) | >64 | 4 (≈ 7.51 µM) | 8 (≈ 15 µM) | – |
| O=C(Cc1ccccc1Nc1c(Cl)cccc1Cl)NC[C@@](O)(Cn1cncn1)c1ccc(F)cc1F [Hybrid 24] | >64 | – | – | >64 | >64 | >64 | >64 | >64 | >64 | >64 | 2 (≈ 3.76 µM) | >64 | – |
| CC(C(=O)O)c1ccc(-c2ccccc2)c(F)c1 (stereo not shown) [flurbiprofen] | – | – | – | – | – | – | – | – | – | – | – | – | Dose-dependent growth reduction |
| CC(C)Cc1ccc(C(C)C(=O)O)cc1 (stereo not shown) [ibuprofen] | – | – | – | – | – | – | – | – | – | – | – | – | Dose-dependent growth reduction |
